Data: patent US12565476B2, “2,5-disubstituted 3-methyl pyrazines and 2,5,6-trisubstituted 3-methyl pyrazines as allosteric SHP2 inhibitors” (Revolution Medicines, Inc., priority 2016, dated 2026)
pIC50: −log10 of the molar value.

Target: SHP2 (Homo sapiens (Human), UniProt Q06124)
Test: SHP2 allosteric inhibition assay (DiFMUP prompt fluorescence)
Assay type: biochemical
Settings: 0.2 nM SHP2 incubated with 0.5 μM Activating Peptide 1 or 2, surrogate substrate DiFMUP, compound 0.00005-10 μM
From the text: Without wishing to be bound by theory, SHP is allosterically activated through binding of bis-tyrosyl-phosphorylated peptides to its Src Homology 2 (SH2) domains. The latter activation step leads to the release of the auto-inhibitory interface of SHP2, which in turn renders the SHP2 protein tyrosine phosphatase (PTP) active and available for substrate recognition and reaction catalysis. The catalytic activity of SHP2 was monitored using the surrogate substrate DiFMUP in a prompt fluorescence assay format.
After 30-60-minutes incubation at 25° C., the surrogate substrate DiFMUP (Invitrogen, Cat #D6567) was added to the reaction and activity was determined by a kinetic read using a microplate reader (Envision, Perkin-Elmer or Spectramax M5, Molecular Devices). The excitation and emission wavelengths were 340 nm and 450 nm, respectively. Initial rates were determined from a linear fit of the data, and the inhibitor dose response curves were analyzed using normalized IC50 regression curve fitting with control based normalization.

pIC50	SMILES
7.08	Cc1nc(N2CCC3(CCC[C@H]3N)CC2)cnc1Sc1cccc(Cl)c1Cl [Example 1, (R)-8-(5-((2,3-dichlorophenyl)thio)-6-methylpyrazin-2-yl)-8-azaspiro[4.5]decan-1-amine]
6.98	Cc1nc(N2CCC(C)(N)CC2)cnc1-c1cccc(Cl)c1Cl [Example 24, 1-(5-(2,3-dichlorophenyl)-6-methylpyrazin-2-yl)-4-methylpiperidin-4-amine]
7.37	Cc1nc(N2CCC3(CCC[C@H]3N)CC2)cnc1-c1cccc(Cl)c1Cl [Example 23, (R)-8-(5-(2,3-dichlorophenyl)-6-methylpyrazin-2-yl)-8-azaspiro[4.5]decan-1-amine]
